For five compounds, IC50 results are on record in ChEMBL document CHEMBL3751791, “Alkenes with antioxidative activities from Murraya koenigii (L.) Spreng” (Bioorg Med Chem Lett, 2016).

A short description of this data set: Antioxidative activity of the compound assessed as DPPH radical scavenging activity. It is filed as physicochemical.
Turning to `CC/C=C/C[C@H](O)/C=C/[C@H](O)[C@H](O)[C@H](O)CCCCC[C@H](C)O`, the IC50 – broadly, the concentration that inhibits the measured activity by half – is 25.4 µM.

Turning to `C=C[C@](C)(O)CC/C=C(C)/C=C/[C@@H](O[C@H]1O[C@@H](CO)[C@H](O)[C@@H](O)[C@@H]1O)C(C)(C)O`, the IC50 came out at 38.4 µM.

On to `O=C(/C=C/c1ccc(O)c(O)c1)O[C@@H]1C[C@](O)(C(=O)O)C[C@@H](O)[C@H]1O` [CHLOROGENIC ACID], for which the IC50 stood at 56.4 µM.

Consider `C=C[C@](C)(CC/C=C(\CO)CC/C=C(\C)C[C@@H](O)/C=C(\C)C(=O)O)O[C@H]1O[C@@H](CO)[C@H](O)[C@@H](O)[C@@H]1O`, for which the half-maximal inhibitory concentration (IC50) amounted to 40.2 µM.

`C=C[C@](C)(O)C[C@@H](O)/C=C(\C)[C@@H](O)CC=C(C)C`: the IC50 is 23.5 µM.
